ChEMBL document CHEMBL3885861, “Open TG-GATES”

Organism: Rattus norvegicus
Assay: Open TG-GATES - Regimen: Daily Repeat
Assay type: toxicity, organism-based, Sprague-Dawley
Design: regimen Daily Repeat, gender Male, age 6 weeks
Conditions: in vivo, po, route gavage; for APTT / Bas / Eos / Fbg / Hb / Ht / Lym / MCH / MCHC / MCV / Mono / Neu / PT / Plat / RBC / Ret / WBC: tissue Blood; for KIDNEY_L / KIDNEY_R / KIDNEY_TOTAL: tissue Kidney; for LIVER: tissue Liver; for A/G / ALP / ALT / AST / BUN / CRE / Ca / Cl / DBIL / GLC / IP / K / LDH / Na / PL / RALB / TBIL / TC / TG / TP / gamma-GTP: tissue Plasma
[1] = 10 mg/kg, 72 h, dose level Middle, time 3 day
[2] = 10 mg/kg, […], dose level Middle, time 7 day
[3] = 10 mg/kg, […], dose level Middle, time 14 day
[4] = 10 mg/kg, […], dose level Middle, time 28 day
[5] = 30 mg/kg, 72 h, dose level High, time 3 day
[6] = 30 mg/kg, […], dose level High, time 7 day
[7] = 30 mg/kg, […], dose level High, time 14 day
[8] = 30 mg/kg, […], dose level High, time 28 day

CN(C)CCC(c1ccc(Cl)cc1)c1ccccn1 (centres undefined) [CHLORPHENIRAMINE]
TERMINAL_BW [1]: 226.7 g
APTT [1]: 18.1 s
Bas [1]: 0%
Eos [1]: 1.2%
Fbg [1]: 297.4 mg/dL
Hb [1]: 13.1 g/dL
Ht [1]: 40.4%
Lym [1]: 77.4%
MCH [1]: 20.7 pg
MCHC [1]: 32.3%
MCV [1]: 63.9 fL
Mono [1]: 2.6%
Neu [1]: 18.6%
PT [1]: 14.8 s
Plat [1]: 123.1 x10_4/uL
RBC [1]: 631.8 x10_4/ul
Ret [1]: 6.1%
WBC [1]: 88.3 x10_2/uL
KIDNEY_L [1]: 1 g
KIDNEY_R [1]: 0.9 g
KIDNEY_TOTAL [1]: 1.9 g
LIVER [1]: 10.2 g
A/G [1]: 0.9
ALP [1]: 1653.8 IU/L
ALT [1]: 38.8 IU/L
AST [1]: 67.8 IU/L
BUN [1]: 14.4 mg/dL
CRE [1]: 0.2 mg/dL
Ca [1]: 10.4 mg/dL
Cl [1]: 107.2 meq/L
DBIL [1]: 0.016 mg/dL
GLC [1]: 184.6 mg/dL
IP [1]: 7.4 mg/dL
K [1]: 4.5 meq/L
LDH [1]: 94.6 IU/L
Na [1]: 141.6 meq/L
PL [1]: 147.8 mg/dL
RALB [1]: 2.6 g/dL
TBIL [1]: 0.038 mg/dL
TC [1]: 82 mg/dL
TG [1]: 76.2 mg/dL
TP [1]: 5.6 g/dL
gamma-GTP [1]: 1.4 IU/L
TERMINAL_BW [2]: 266.4 g
TERMINAL_BW [3]: 329 g
TERMINAL_BW [4]: 411.3 g
APTT [2]: 22.1 s
Bas [2]: 0%
Eos [2]: 0.8%
Fbg [2]: 297.2 mg/dL
Hb [2]: 13.6 g/dL
Ht [2]: 41%
Lym [2]: 77%
MCH [2]: 20.8 pg
MCHC [2]: 33%
MCV [2]: 63.1 fL
Mono [2]: 2.2%
Neu [2]: 19.2%
PT [2]: 14.1 s
Plat [2]: 110 x10_4/uL
RBC [2]: 650.4 x10_4/ul
Ret [2]: 5.7%
WBC [2]: 82.7 x10_2/uL
APTT [3]: 16.1 s
Bas [3]: 0.2%
Eos [3]: 0.4%
Fbg [3]: 365 mg/dL
Hb [3]: 14 g/dL
Ht [3]: 42.2%
Lym [3]: 73.6%
MCH [3]: 20.3 pg
MCHC [3]: 33.1%
MCV [3]: 61.3 fL
Mono [3]: 3.4%
Neu [3]: 19.8%
PT [3]: 14.4 s
Plat [3]: 118 x10_4/uL
RBC [3]: 687.8 x10_4/ul
Ret [3]: 4.6%
WBC [3]: 91.1 x10_2/uL
APTT [4]: 18.2 s
Bas [4]: 0%
Eos [4]: 1%
Fbg [4]: 267.8 mg/dL
Hb [4]: 15.2 g/dL
Ht [4]: 45.1%
Lym [4]: 78.8%
MCH [4]: 18.9 pg
MCHC [4]: 33.8%
MCV [4]: 56 fL
Mono [4]: 2.2%
Neu [4]: 17.4%
PT [4]: 15.2 s
Plat [4]: 106.7 x10_4/uL
RBC [4]: 806.2 x10_4/ul
Ret [4]: 2.2%
WBC [4]: 92.2 x10_2/uL
KIDNEY_L [2]: 1.1 g
KIDNEY_R [2]: 1.1 g
KIDNEY_TOTAL [2]: 2.2 g
KIDNEY_L [3]: 1.3 g
KIDNEY_R [3]: 1.2 g
KIDNEY_TOTAL [3]: 2.5 g
KIDNEY_L [4]: 1.5 g
KIDNEY_R [4]: 1.4 g
KIDNEY_TOTAL [4]: 2.9 g
LIVER [2]: 12.1 g
LIVER [3]: 14.6 g
LIVER [4]: 16.2 g
A/G [2]: 0.8
ALP [2]: 1451.2 IU/L
ALT [2]: 40.6 IU/L
AST [2]: 64.4 IU/L
BUN [2]: 15.8 mg/dL
CRE [2]: 0.2 mg/dL
Ca [2]: 11.4 mg/dL
Cl [2]: 105.8 meq/L
DBIL [2]: 0.012 mg/dL
GLC [2]: 194.4 mg/dL
IP [2]: 7.6 mg/dL
K [2]: 4.2 meq/L
LDH [2]: 96.6 IU/L
Na [2]: 142.6 meq/L
PL [2]: 158.4 mg/dL
RALB [2]: 2.6 g/dL
TBIL [2]: 0.028 mg/dL
TC [2]: 84.8 mg/dL
TG [2]: 98 mg/dL
TP [2]: 5.8 g/dL
gamma-GTP [2]: 1 IU/L
A/G [3]: 0.8
ALP [3]: 1493.6 IU/L
ALT [3]: 41.6 IU/L
AST [3]: 64 IU/L
BUN [3]: 15.8 mg/dL
CRE [3]: 0.2 mg/dL
Ca [3]: 11.2 mg/dL
Cl [3]: 105.4 meq/L
DBIL [3]: 0.016 mg/dL
GLC [3]: 199.6 mg/dL
IP [3]: 7.8 mg/dL
K [3]: 4 meq/L
LDH [3]: 103 IU/L
Na [3]: 144 meq/L
PL [3]: 152.2 mg/dL
RALB [3]: 2.8 g/dL
TBIL [3]: 0.034 mg/dL
TC [3]: 78.2 mg/dL
TG [3]: 116.2 mg/dL
TP [3]: 6 g/dL
gamma-GTP [3]: 1 IU/L
A/G [4]: 0.8
ALP [4]: 1476.8 IU/L
ALT [4]: 39 IU/L
AST [4]: 67 IU/L
BUN [4]: 16.8 mg/dL
CRE [4]: 0.2 mg/dL
Ca [4]: 10.5 mg/dL
Cl [4]: 107.2 meq/L
DBIL [4]: 0.016 mg/dL
GLC [4]: 193.4 mg/dL
IP [4]: 6.2 mg/dL
K [4]: 4.1 meq/L
LDH [4]: 87.2 IU/L
Na [4]: 144.2 meq/L
PL [4]: 141 mg/dL
RALB [4]: 2.7 g/dL
TBIL [4]: 0.03 mg/dL
TC [4]: 65.6 mg/dL
TG [4]: 136.6 mg/dL
TP [4]: 6 g/dL
gamma-GTP [4]: 1 IU/L
TERMINAL_BW [5]: 205.8 g
APTT [5]: 18.2 s
Bas [5]: 0.4%
Eos [5]: 1%
Fbg [5]: 272.2 mg/dL
Hb [5]: 14.3 g/dL
Ht [5]: 43.8%
Lym [5]: 78.6%
MCH [5]: 20.4 pg
MCHC [5]: 32.5%
MCV [5]: 62.5 fL
Mono [5]: 3.2%
Neu [5]: 15.8%
PT [5]: 15.3 s
Plat [5]: 124 x10_4/uL
RBC [5]: 701 x10_4/ul
Ret [5]: 3.4%
WBC [5]: 91.9 x10_2/uL
KIDNEY_L [5]: 1 g
KIDNEY_R [5]: 0.9 g
KIDNEY_TOTAL [5]: 1.9 g
LIVER [5]: 8.8 g
A/G [5]: 0.9
ALP [5]: 1539.6 IU/L
ALT [5]: 38 IU/L
AST [5]: 67.2 IU/L
BUN [5]: 14.8 mg/dL
CRE [5]: 0.2 mg/dL
Ca [5]: 10.3 mg/dL
Cl [5]: 108.8 meq/L
DBIL [5]: 0.012 mg/dL
GLC [5]: 182.6 mg/dL
IP [5]: 7.5 mg/dL
K [5]: 4.5 meq/L
LDH [5]: 95.6 IU/L
Na [5]: 142.2 meq/L
PL [5]: 133 mg/dL
RALB [5]: 2.6 g/dL
TBIL [5]: 0.038 mg/dL
TC [5]: 74.6 mg/dL
TG [5]: 62.6 mg/dL
TP [5]: 5.5 g/dL
gamma-GTP [5]: 1.2 IU/L
TERMINAL_BW [6]: 242.7 g
TERMINAL_BW [7]: 294.5 g
TERMINAL_BW [8]: 368.6 g
APTT [6]: 19.1 s
Bas [6]: 0.4%
Eos [6]: 1%
Fbg [6]: 302.6 mg/dL
Hb [6]: 13.6 g/dL
Ht [6]: 40.9%
Lym [6]: 74%
MCH [6]: 20.5 pg
MCHC [6]: 33.3%
MCV [6]: 61.4 fL
Mono [6]: 3.2%
Neu [6]: 21.2%
PT [6]: 13.9 s
Plat [6]: 119 x10_4/uL
RBC [6]: 665.2 x10_4/ul
Ret [6]: 3.6%
WBC [6]: 121.3 x10_2/uL
APTT [7]: 17.1 s
Bas [7]: 0.2%
Eos [7]: 0.8%
Fbg [7]: 282 mg/dL
Hb [7]: 14.1 g/dL
Ht [7]: 42.4%
Lym [7]: 79.2%
MCH [7]: 19.9 pg
MCHC [7]: 33.4%
MCV [7]: 59.7 fL
Mono [7]: 2.6%
Neu [7]: 16.4%
PT [7]: 14.3 s
Plat [7]: 113.7 x10_4/uL
RBC [7]: 709 x10_4/ul
Ret [7]: 4.6%
WBC [7]: 93.8 x10_2/uL
APTT [8]: 20.7 s
Bas [8]: 0%
Eos [8]: 0.8%
Fbg [8]: 290.6 mg/dL
Hb [8]: 15.8 g/dL
Ht [8]: 46.8%
Lym [8]: 80.6%
MCH [8]: 19 pg
MCHC [8]: 33.8%
MCV [8]: 56.2 fL
Mono [8]: 2.6%
Neu [8]: 14.8%
PT [8]: 15.1 s
Plat [8]: 110.6 x10_4/uL
RBC [8]: 834 x10_4/ul
Ret [8]: 2.2%
WBC [8]: 98.8 x10_2/uL
KIDNEY_L [6]: 1 g
KIDNEY_R [6]: 1 g
KIDNEY_TOTAL [6]: 2 g
KIDNEY_L [7]: 1.1 g
KIDNEY_R [7]: 1.1 g
KIDNEY_TOTAL [7]: 2.3 g
KIDNEY_L [8]: 1.5 g
KIDNEY_R [8]: 1.4 g
KIDNEY_TOTAL [8]: 2.9 g
LIVER [6]: 10.9 g
LIVER [7]: 12.6 g
LIVER [8]: 15.6 g
A/G [6]: 0.8
ALP [6]: 1512.4 IU/L
ALT [6]: 40.6 IU/L
AST [6]: 65 IU/L
BUN [6]: 16 mg/dL
CRE [6]: 0.2 mg/dL
Ca [6]: 11.3 mg/dL
Cl [6]: 106.2 meq/L
DBIL [6]: 0.012 mg/dL
GLC [6]: 185.6 mg/dL
IP [6]: 7.6 mg/dL
K [6]: 4.4 meq/L
LDH [6]: 112.2 IU/L
Na [6]: 141.6 meq/L
PL [6]: 163.6 mg/dL
RALB [6]: 2.6 g/dL
TBIL [6]: 0.028 mg/dL
TC [6]: 86.4 mg/dL
TG [6]: 117 mg/dL
TP [6]: 5.8 g/dL
gamma-GTP [6]: 1 IU/L
A/G [7]: 0.8
ALP [7]: 1415.4 IU/L
ALT [7]: 32.8 IU/L
AST [7]: 57.8 IU/L
BUN [7]: 15.4 mg/dL
CRE [7]: 0.2 mg/dL
Ca [7]: 11.1 mg/dL
Cl [7]: 105.8 meq/L
DBIL [7]: 0.012 mg/dL
GLC [7]: 190.6 mg/dL
IP [7]: 7.6 mg/dL
K [7]: 4.6 meq/L
LDH [7]: 122.4 IU/L
Na [7]: 141.8 meq/L
PL [7]: 155.8 mg/dL
RALB [7]: 2.8 g/dL
TBIL [7]: 0.03 mg/dL
TC [7]: 82.4 mg/dL
TG [7]: 121 mg/dL
TP [7]: 6 g/dL
gamma-GTP [7]: 1 IU/L
A/G [8]: 0.8
ALP [8]: 1092.6 IU/L
ALT [8]: 34 IU/L
AST [8]: 54.6 IU/L
BUN [8]: 16 mg/dL
CRE [8]: 0.2 mg/dL
Ca [8]: 10.7 mg/dL
Cl [8]: 105.6 meq/L
DBIL [8]: 0.014 mg/dL
GLC [8]: 184 mg/dL
IP [8]: 7.1 mg/dL
K [8]: 4.4 meq/L
LDH [8]: 92.8 IU/L
Na [8]: 144.2 meq/L
PL [8]: 150.2 mg/dL
RALB [8]: 2.8 g/dL
TBIL [8]: 0.03 mg/dL
TC [8]: 75.2 mg/dL
TG [8]: 148 mg/dL
TP [8]: 6.2 g/dL
gamma-GTP [8]: 1.2 IU/L
